By Ki is commonly meant a measure of affinity in units of concentration, obtained from inhibition or displacement. In general, Kd refers to the constant that tells how readily two partners part at equilibrium. For orientation: IC50 means the concentration at which inhibition is half-maximal.

For assay [1], the target named is T1, recombinant human heparanase (Homo sapiens, UniProt Q9Y251).
T1 sequence (Q9Y251 158-543 limits assumed): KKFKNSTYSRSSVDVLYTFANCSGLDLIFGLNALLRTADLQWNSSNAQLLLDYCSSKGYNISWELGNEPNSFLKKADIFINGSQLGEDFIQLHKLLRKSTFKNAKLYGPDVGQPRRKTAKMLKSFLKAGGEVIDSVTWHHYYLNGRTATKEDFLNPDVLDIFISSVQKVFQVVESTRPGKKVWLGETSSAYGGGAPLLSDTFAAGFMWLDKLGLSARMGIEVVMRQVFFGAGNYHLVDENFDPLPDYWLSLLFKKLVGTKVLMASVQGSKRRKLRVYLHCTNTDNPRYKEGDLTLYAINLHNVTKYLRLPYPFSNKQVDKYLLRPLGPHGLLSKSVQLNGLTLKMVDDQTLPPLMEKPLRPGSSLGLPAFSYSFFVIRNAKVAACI
T1 sequence (Q9Y251 36-109 limits assumed): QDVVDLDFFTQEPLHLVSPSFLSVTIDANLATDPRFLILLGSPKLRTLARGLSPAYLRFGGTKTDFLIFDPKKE
Kind of assay: Heparanase inhibition assay (fondaparinux cleavage, WST-1). The conditions noted are these: read-out: Ki Heparanase; IC50 converted into Ki; fondaparinux 100 μM, pH 5.0. Background: Formazan colour is commonly taken as a measure of viable cells.

The next assay has as its system RSV. Kind of assay: Viral plaque number-reduction assay, RSV. The conditions noted are these: for RSV IC50: viral plaques (Table 9). The method in brief: (§1)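 200 PFU virus premixed 10 min with compound (100 μg/mL screen) and kept throughout infection. HSV plaques in GMK AH1 cells, RSV (strain A-2) in HEp-2 cells. Methylcellulose overlay, 37 °C, crystal violet staining after 2 days (HSV-2) or 3 days (HSV-1); plaque numbers counted.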

The target in another assay is FGF-1 (Homo sapiens, UniProt P05230). Kind of assay: Growth factor binding assay (SPR solution affinity), FGF-1. The conditions noted are these: SPR, HBS-EP buffer, 25° C.; read-out: Kd FGF-1.
A further assay relates to HSV-2. The experiment in a line: Viral plaque number-reduction assay, HSV-2. The conditions noted are these: for HSV-2 IC50: viral plaques in GMK AH1 cells (Table 9). In outline:
as §1

Assay [2] relates to pooled normal human plasma. Kind of assay: Anticoagulant activity, APTT. The conditions noted are these: 0.1 mg/mL in normal pooled human plasma. As for the experimental part:
APTT measurements were performed on a STAGO STA-Compact Coagulation Analyser using standard protocols according to the manufacturer's instructions. Unfractionated heparin (UFH) was used as a control.

The next assay deals with T2, VEGF (Homo sapiens, UniProt P15692).
T2 sequence (P15692 207-395): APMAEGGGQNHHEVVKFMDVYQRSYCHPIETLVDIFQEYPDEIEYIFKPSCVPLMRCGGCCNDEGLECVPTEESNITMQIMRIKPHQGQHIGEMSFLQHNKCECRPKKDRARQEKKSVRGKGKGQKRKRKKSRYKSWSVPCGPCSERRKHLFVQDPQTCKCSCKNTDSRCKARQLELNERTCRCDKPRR
The experiment in a line: Growth factor binding assay (SPR solution affinity), VEGF. The conditions noted are these: HBS-EP buffer, 25° C. In outline:
(§2)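 Kd measured by SPR solution affinity: fixed growth factor with varying ligand competing for heparin-coated sensorchip, 25 °C. Buffer HBS-EP pH 7.4 (150 mM NaCl) for FGF-1 and VEGF; FGF-2 with 0.3 M NaCl. Duplicate values averaged.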

Assay [3] has as its system normal pooled human plasma. The experiment in a line: Anticoagulant activity, Heptest. The conditions noted are these: 0.1 mg/mL in normal pooled human plasma.
In the next assay the target is FGF-2 (Homo sapiens, UniProt P09038). The experiment in a line: Growth factor binding assay (SPR solution affinity), FGF-2. The conditions noted are these: SPR, HBS-EP buffer containing 0.3 M NaCl, 25° C.; read-out: Kd FGF-2. The method in brief:
as §2

FGF-1, sequence (P05230 whole entry, species assumed): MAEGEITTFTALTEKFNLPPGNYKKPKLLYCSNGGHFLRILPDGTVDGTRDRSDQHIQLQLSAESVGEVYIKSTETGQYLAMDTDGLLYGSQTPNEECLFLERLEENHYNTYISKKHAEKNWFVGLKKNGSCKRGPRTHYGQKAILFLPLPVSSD
FGF-2, sequence (P09038 143-288, species assumed): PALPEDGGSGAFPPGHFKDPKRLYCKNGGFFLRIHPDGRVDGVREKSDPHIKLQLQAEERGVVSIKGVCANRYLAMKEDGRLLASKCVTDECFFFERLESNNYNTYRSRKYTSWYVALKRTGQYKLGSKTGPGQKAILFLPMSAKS

For `CC(C)CCC[C@@H](C)[C@H]1CC[C@H]2[C@@H]3CCC4CC(O[C@H]5O[C@H](COS(=O)(=O)[O-])[C@@H](OS(=O)(=O)[O-])[C@H](O[C@H]6O[C@H](COS(=O)(=O)[O-])[C@@H](OS(=O)(=O)[O-])[C@H](O[C@H]7O[C@H](COS(=O)(=O)[O-])[C@@H](OS(=O)(=O)[O-])[C@H](OS(=O)(=O)[O-])[C@@H]7OS(=O)(=O)[O-])[C@@H]6OS(=O)(=O)[O-])[C@@H]5OS(=O)(=O)[O-])CC[C@]4(C)[C@H]3CC[C@]12C.[Na+].[Na+].[Na+].[Na+].[Na+].[Na+].[Na+].[Na+].[Na+].[Na+]` (stereo partly drawn) [Compound 56, 3′-Cholestanyl 2,3,4,6-tetra-O-sodium sulfonato-α-D-mannopyranosyl-(1→3)-2,4,6-tri-O-sodium sulfonato-α-D-mannopyranosyl-(1→3)-3,4,6-tri-O-sodium sulfonato-α-D-mannopyranoside], in assay [1], the Ki stood at 10.5 ± 1.7 nM. The “RSV IC50” value with RSV turned out to be 0.45 µg/mL. Further, the Kd at FGF-1 was found to be 16 ± 7 nM; on VEGF it was 90 ± 30 nM; at FGF-2, 490 ± 40 nM. Moreover, in the assay with HSV-2, the “HSV-2 IC50” value stood at 0.3 µg/mL. Besides, in assay [2], the APTT stood at 58.5 s. The Heptest in assay [3] was found to be 24.2 s.

On to `CC(C)CCC[C@@H](C)[C@H]1CC[C@H]2[C@@H]3CCC4C[C@@H](OCc5cn(CCCO[C@H]6O[C@H](COS(=O)(=O)[O-])[C@@H](OS(=O)(=O)[O-])[C@H](O[C@H]7O[C@H](COS(=O)(=O)[O-])[C@@H](OS(=O)(=O)[O-])[C@H](O[C@H]8O[C@H](COS(=O)(=O)[O-])[C@@H](OS(=O)(=O)[O-])[C@H](OS(=O)(=O)[O-])[C@@H]8OS(=O)(=O)[O-])[C@@H]7OS(=O)(=O)[O-])[C@@H]6OS(=O)(=O)[O-])nn5)CC[C@]4(C)[C@H]3CC[C@]12C.[Na+].[Na+].[Na+].[Na+].[Na+].[Na+].[Na+].[Na+].[Na+].[Na+]` (stereo partly drawn) [Compound 60, 3-{4-(Cholestan-3β-yl-oxymethyl)-[1,2,3]triazol-1-yl}propyl 2,3,4,6-tetra-O-sodium sulfonato-α-D-mannopyranosyl-(1→3)-2,4,6-tri-O-sodium sulfonato-α-D-mannopyranosyl-(1→3)-3,4,6-tri-O-sodium sulfonato-α-D-mannopyranoside], for which the inhibitory constant (Ki) in assay [1] was determined as 8.4 ± 2.6 nM. For the same molecule, in the assay with RSV, the “RSV IC50” value is 0.39 µg/mL. The Kd came to 14.3 ± 3 nM on FGF-1, 260 ± 130 nM at VEGF and 474 ± 1.4 nM at FGF-2. Also, in the assay with HSV-2, the “HSV-2 IC50” value was 0.24 µg/mL. Moreover, the APTT in assay [2] is 71.4 s. In assay [3], this molecule displayed a Heptest of 26.4 s.

For `CC(C)CCC[C@@H](C)[C@H]1CC[C@H]2[C@@H]3CCC4CC(OCc5cn([C@@H]6O[C@H](COS(=O)(=O)[O-])[C@@H](O[C@H]7O[C@H](COS(=O)(=O)[O-])[C@@H](O[C@H]8O[C@H](COS(=O)(=O)[O-])[C@@H](OS(=O)(=O)[O-])[C@H](OS(=O)(=O)[O-])[C@H]8OS(=O)(=O)[O-])[C@H](OS(=O)(=O)[O-])[C@H]7OS(=O)(=O)[O-])[C@H](OS(=O)(=O)[O-])[C@H]6OS(=O)(=O)[O-])nn5)CC[C@]4(C)[C@H]3CC[C@]12C.[Na+].[Na+].[Na+].[Na+].[Na+].[Na+].[Na+].[Na+].[Na+].[Na+]` (stereo partly drawn) [Compound 70, 4-(Cholestan-3-yl-oxymethyl)[1,2,3]triazol-1-yl 2,3,4,6-tetra-O-sodium sulfonato-α-D-glucopyranosyl-(1→4)-2,3,6-tri-O-sodium sulfonato-α-D-glucopyranosyl-(1→4)-1-deoxy-2,3,6-tri-O-sodium sulfonato-β-D-glucopyranoside], the Ki in assay [1] was determined as 3.7 ± 0.8 nM. In addition, in the assay with RSV, the “RSV IC50” value stood at 0.23 µg/mL. For the same molecule, the Kd on FGF-1 was 9.7 ± 0.8 nM; at VEGF it was 95 ± 8 nM; on FGF-2 it was 390 ± 90 nM. Also, the “HSV-2 IC50” value with HSV-2 was found to be 0.15 µg/mL. For the same molecule, in assay [2], the APTT is 104.0 s. The Heptest in assay [3] was determined as 45.5 s.

Take `CCCCCCCCCCCCCCCCCC(=O)NCCCO[C@@H]1O[C@H](COS(=O)(=O)[O-])[C@@H](O[C@H]2O[C@H](COS(=O)(=O)[O-])[C@@H](O[C@H]3O[C@H](COS(=O)(=O)[O-])[C@@H](O[C@H]4O[C@H](COS(=O)(=O)[O-])[C@@H](OS(=O)(=O)[O-])[C@H](OS(=O)(=O)[O-])[C@H]4OS(=O)(=O)[O-])[C@H](OS(=O)(=O)[O-])[C@H]3OS(=O)(=O)[O-])[C@H](OS(=O)(=O)[O-])[C@H]2OS(=O)(=O)[O-])[C@H](OS(=O)(=O)[O-])[C@H]1OS(=O)(=O)[O-].[Na+].[Na+].[Na+].[Na+].[Na+].[Na+].[Na+].[Na+].[Na+].[Na+].[Na+].[Na+].[Na+]` [Compound 128, 3-Stearamidopropyl 2,3,4,6-tetra-O-sulfo-α-D-glucopyranosyl-(1→4)-2,3,6-tri-O-sulfo-α-D-glucopyranosyl-(1→4)-2,3,6-tri-O-sulfo-α-D-glucopyranosyl-(1→4)-2,3,6-tri-O-sulfo-β-D-glucopyranoside, tridecasodium salt]: the inhibition constant Ki in assay [1] is 9.1 ± 0.3 nM. Further, the IC50 stood at 1.4 µg/mL with RSV (human respiratory syncytial virus, read-out: RSV IC50) and 1 µg/mL in the assay with HSV-2 (Human alphaherpesvirus 2, read-out: HSV-2 IC50). In addition, the results for the Kd at FGF-1, on VEGF and at FGF-2 were 4.94 ± 0.08 nM, 14 ± 4 nM and 311 ± 25 nM, respectively. The APTT in assay [2] stood at 65.8 s. The molecule further showed a Heptest in assay [3] of 32.2 s.

These data come from patent US20150065440A1 (Progen Pharmaceuticals Limited, priority 2007, published 2015).
